The values that follow come from ChEMBL document CHEMBL5725872, “Benzofuran compounds for the treatment of hepatitis C” (2018).

The nature of the experiment: HCV Replicon Luciferase Assay: To evaluate compound efficacy, titrated compounds were transferred to sterile 384-well tissue culture treated plates, and the plates were seeded with HCV replicon cells (50 μL at a density of 2.4×10^3 cells/well) in DMEM containing 4% FBS (final DMSO concentration at 0.5%). After 3 days incubation at 37° C., cells were analyzed for Renilla Luciferase activity using the EnduRen substrate (Promega cat #E6485) according to the manufacturer's directions. Briefly, the EnduRen substrate was diluted in DMEM and then added to the plates to a final concentration of 7.5 μM. The plates were incubated for at least 1 h at 37° C. then read on a Viewlux Imager (PerkinElmer) using a luminescence program. The 50% effective concentration (EC50) was calculated using the four-parameter logistic Formula noted above. To assess cytotoxicity of compounds, Cell Titer-Blue (Promega) was added to the EnduRen-containing plates and incubated for at least 4 hrs at 37° C. The fluorescence signal from each well was read using a Viewlux Imager. All CC50 values were calculated using the four-parameter logistic Formula.

The structures appear in SMILES notation. Bounds are passed on as bounds.

A word on the EC50: it is the concentration that produces a half-maximal response. Turning to `CNC(=O)c1c(-c2ccc(F)cc2)oc2cc(N(CCCF)S(C)(=O)=O)c(-c3cccc(C(=O)N[C@H](C)C(F)(F)F)c3)cc12`, where the note is “72 h”, the EC50 was < 100 nM.
For the molecule `CNC(=O)c1c(-c2ccc(F)cc2)oc2cc(N(CCF)S(C)(=O)=O)c(-c3cccc(C(=O)N4CCC[C@H]4CO)c3)cc12`, the half-maximal effective concentration (EC50) (72 h) is 100 to 1000 nM.
With `CNC(=O)c1c(-c2ccc(F)cc2)oc2cc(N(CCF)S(C)(=O)=O)c(-c3cccc(C(=O)NC(C)(C)C)c3)cc12`, the EC50 is < 100 nM. In addition, the EC50 (72 h) was < 100 nM.
On to `CC[C@H](NC(=O)c1cccc(-c2cc3c(C(=O)NC)c(-c4ccc(F)cc4)oc3cc2N(CCF)S(C)(=O)=O)c1)C1CC1`, for which the EC50 (72 h) was < 100 nM.
Same read-out and setting: under `CNC(=O)c1c(-c2ccc(F)cc2)oc2cc(N(CCF)S(C)(=O)=O)c(-c3cccc(C(=O)N4CC[C@H](O)C4)c3)cc12` stands > 1000 nM; under `CNC(=O)c1c(-c2ccc(F)cc2)oc2cc(N(C(F)F)S(C)(=O)=O)c(-c3cccc(C(=O)O)c3)cc12`, > 10000 nM.
On the same count and under the same terms, then `CNC(=O)c1c(-c2ccc(F)cc2)oc2cc(N(CCCF)S(C)(=O)=O)c(-c3cccc(C(=O)N[C@@H](C)C(F)(F)F)c3)cc12`, with < 100 nM.
Take `CNC(=O)c1c(-c2ccc(F)cc2)oc2cc(N(CCCF)S(C)(=O)=O)c(-c3cccc(C(=O)NC(C)(C)C)c3)cc12`: the EC50 was < 100 nM. The EC50 (72 h) is < 100 nM.
